Consider three compounds from patent publication US8293776B2, “Compositions and methods for treating inflammatory conditions of the bowel” (The Regents of the University of Michigan, priority 2008, dated 2012).

Data set [1] can be described thus: Blood pressure and heart rate by tail-cuff in DSS mice after transanal treatment. As to conditions: day 6 of DSS; for systolic blood pressure change (Delta BP, post − pre treatment): 1 hour before and 2 hr after treatment; for heart rate change: compared with naïve group. In kind it is in vivo, C57BL/6 mice. The text has this:
Measurements of Blood Pressure and Heart Rate. […] The system was designed to perform all functions automatically, including a programmable routine of cuff inflation and deflation, analysis and assignment of pulse rate and blood pressure, and recording of data electronically. To avoid variations in blood pressures, results were expressed using % Delta Blood Pressure (percent change in systolic pressures prior to and after treatment). Heart rate was also expressed as the change in rate before and after final dosing of […] drug/placebo.

For data set [2] the following is noted: in vivo; cited from earlier work.
Data set [3] relates to mucosal RNA of regulatory factors associated with inflammatory bowel disease. The data set is described as follows: Mucosal RNA of regulatory factors by RT-PCR, DSS mice, oral administration. In kind it is in vivo. As to conditions: oral therapy, 7 days. The method, then: Experiments were conducted during development of embodiments of the invention in order to determine if AT1a antagonists or derivatives thereof could treat signs and symptoms of inflammatory bowel disease (e.g., inflammatory conditions of the intestine) when administered orally. Materials and methods were used as described in Example 3 with the following exceptions. AT1a antagonists or derivatives thereof were suspended in water. Each dose was given via the oral route using a blunt tipped needle by gavage directly into the stomach of each mouse. Dosing was daily in a single administration over a period of seven days. Realtime PCR was utilized to measure the abundance of mucosal RNA of several regulatory factors associated with inflammatory bowel disease. Factors studied were: TNF-α(tumor necrosis factor-alpha); interleukin-1b (IL-1b); IL-6; IL-10; transforming growth factor-beta (TGF-b) and Foxp3 (a T-cell regulatory factor). […] Realtime PCR was also utilized to measure the abundance of mucosal RNA of several additional regulatory factors associated with inflammatory bowel disease. IL-12p40, the regulatory factor for interleukin-12 (IL-12), and a key regulator for the up-regulation of interferon gamma (IFN-g); IFN-g; […]

The subject of a further data set is DSS colitis mice. The data set is described as follows: DSS colitis in mice, transanal treatment: body weight, fecal blood, histology, apoptosis. Type of data set: in vivo, C57BL/6 mice. As to conditions: for weight loss after 7 days (body weight change, FIG. 10B): 2.5% DSS, DCL and Losartan 10× (2,500 μg per dose), Candesartan 1× (250 μg per dose), mean±SD, placebo −15.81±6.59; for weight loss after 7 days (body weight change, FIG. 10B) / period before developing heme positive stools: transanal daily; for weight loss after 1 week (percentage change from baseline body weight) / period before developing heme positive stools: DSS; for weight loss after 1 week (percentage change from baseline body weight): transanal daily 7 days, placebo 15.8±6.5, P<0.001 versus placebo; for period before developing heme positive stools: placebo 5.64±1.22 days. The procedure:
Animals. Specific pathogen-free male, 8-week old C57BL/6 mice (Taconic Farms Inc, Germantown, N.Y.) were maintained in a 12-h night rhythm at 23° C. and a relative humidity of 40-60%. Animals were fed standard rodent chow (LabDiet 5001Rodent Diet, PMI Nutrition International, LLC, Brentwood, Mo.) ad libitum. All experiments were approved by the University Committee on Use and Care of Animals at the University of Michigan. Experimental colitis design. Dextran sodium sulfate (DSS) was administered through drinking water for 7 days. Mice were randomly divided into 5 groups. In the DSS+placebo group, mice were given […] (total volume 0.25 ml) each day as a control. […] A[…]-A were given at 10-fold higher doses (losartan and […]: 10 mg/kg/day, candesartan: 1 mg/kg/day) than typically given systemically, and daily dosing was continued for 7 days. The study drugs were administered using a blunt needle via the […] route. Testing conducted during development of embodiments of the invention characterized that this amount of drug evenly coated the entire colon. A separate group of mice contained naive mice as an additional control group which received plain drinking water ad libitum, and received only water (0.25 ml, […]) without AT 1 aR-A. Harvesting. Mice were euthanized 7 days after DSS by carbon dioxide asphyxiation. […] Formalin preserved sections of distal colon were preserved in paraffin, sectioned transversely (5 μm) and stained with hematoxylin and eosin (H&E). The remaining colon was immediately processed for mucosal cell isolation. Assessment of colitis. The body weight of each mouse, stool characteristics, and intestinal bleeding were recorded. All animals were evaluated daily. Occult bleeding was tested using a hemoccult-card test (Beckman Coulter Inc, Fullerton, Calif.). Histologic grading of colitis was performed in a masked fashion (investigator blinded to the study group) according to previously described methods. (See, e.g., Spencer et al., et al. Dig Dis Sci 2007; 52:1060-70). Crypt shortening and distortion, together with inflammatory infiltrative thickening of the lamina propria, were assigned a score 0 (normal) through 4 (complete loss of crypt, ulceration, and severe thickening of lamina propria). The individual colitis score (0-4) from four quadrants of a left-sided colonic section were summed, such that the maximum score for a given section was 16, and the minimum score was 0. The mean of at least 2 sections were assessed in this manner for each mouse. Epithelial cell apoptosis assays. A terminal deoxynucleotidyl transferase biotin-dUTP nick end labeling (TUNEL) staining method was used to detect apoptosis, according to manufacturer's instructions (APOPTAG PLUS Peroxidase InSitu Apoptosis Detection Kit, Chemicon International Inc, Temecula, Calif.), with slight modification. Slides were incubated with only one-third of the recommended concentration of TdT enzyme, in order to avoid over-staining. Assessment of apoptosis consisted of separate counting of all TUNEL positive EC in all well oriented crypts and villi separately, and dividing the total number of counted apoptotic cells per number of analyzed crypts and villi, respectively. Apoptotic Index in the region of villi is expressed as the number of TUNEL positive cells per one villus. The addition of both crypt and villus apoptotic indices is expressed as the apoptotic index per crypt-villus complex (at 20× magnification).

For data set [4] the following is noted: mouse, in vivo. The text has this: The scores were compared to the Naïve cohort.
Colonic mucosal and mesenteric blood flow measurements.

For data set [5], the system named is AT1a receptor. As to conditions: cited from earlier work.
The subject of a further data set is Ang I-infused dogs. Conditions: i.v., 1 mg/kg; cited from earlier work.
The target of data set [6] is T1, AT1a receptor (Rattus norvegicus, UniProt P25095).
T1 construct: expressed in transfected cells; host or cells: HepG2 (HepG2-AR), stably transfected
T1 sequence (P25095 1-359): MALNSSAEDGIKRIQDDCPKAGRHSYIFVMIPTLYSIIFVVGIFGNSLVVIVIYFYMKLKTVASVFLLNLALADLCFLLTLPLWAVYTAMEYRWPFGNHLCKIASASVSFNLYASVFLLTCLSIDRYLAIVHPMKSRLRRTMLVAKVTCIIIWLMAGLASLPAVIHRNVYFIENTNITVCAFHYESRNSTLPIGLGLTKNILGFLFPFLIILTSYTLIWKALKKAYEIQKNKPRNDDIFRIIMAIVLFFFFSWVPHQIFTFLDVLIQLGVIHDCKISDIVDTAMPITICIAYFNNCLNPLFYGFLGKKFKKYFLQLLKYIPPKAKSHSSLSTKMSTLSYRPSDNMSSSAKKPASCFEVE
The experiment in a line: Ang II-dependent NF-κB-luciferase reporter assay in HepG2-AR cells. In kind it is cell-based. Conditions: Ang II 1 μM, 16 hours, Ang II alone = 100% induction, read-out: inhibition of NF-κB activation. For orientation: In a reporter assay the amount or activity of a reporter protein is the signal.
From the text: In vitro assessment of AT1aR antagonism. […] This model makes use of the fact that Ang II-dependent stimulation of the AT1a receptor results in rapid activation of the NF-κB transcription factor. In this model, HepG2-AR cells, which stably express the AT1a receptor, were transiently transfected with an NF-κB-luciferase reporter plasmid and a control renilla plasmid (to correct for transfection efficiency). […] Cells were harvested and the luciferase/renilla ratio determined using the Promega Dual Luciferase Assay Kit. […] Loss of Ang II-dependent luciferase induction (measured by luminometer; LMax; Molecular Devices), due to the presence of receptor blockade was then calculated and used to indicate the extent of successful blockade of the AT1a receptor signaling pathway.
HepG2-AR cells, which stably express the AT1a receptor, were transiently transfected with an NF-κB-luciferase reporter plasmid and a control renilla plasmid (to correct for transfection efficiency). […] Cells were harvested and the luciferase/renilla ratio determined using a luciferase assay kit (e.g., Promega Dual Luciferase Assay Kit). […] The fold induction in the presence of varying doses of inhibitor was then converted to a percentage of this maximal induction.

The target of data set [7] is AT1a receptor. As to conditions: read-out: IC50 against the binding of Ang II to the AT1a receptor; cited from earlier work.

pIC50: −log10 of the molar value. “Also recorded” adds a separate entry of the source.

On to `CCCCc1ncc(CO)n1Cc1ccc(-c2ccccc2-c2nn[nH]n2)cc1` [DCL, des-chloro losartan], for which, in [1], the “systolic blood pressure change (Delta BP, post − pre treatment)” value is “did not significantly change BP; also recorded: no change in systolic blood pressure” and the heart rate change result is recorded as “not significantly different”. The oral activity entry in data set [2] is on record as “lacks oral activity”. Further, the “mucosal RNA of ADAM17” value in data set [3] is reported as “marked decline in ADAM17”. In the data set with DSS colitis mice, the “weight loss after 7 days (body weight change, FIG. 10B)” value is reported as −2.02±4.34%; the “weight loss after 1 week (percentage change from baseline body weight)” value was 2.02±4.34%; the “period before developing heme positive stools” value worked out at 7.00 ± 1.4 days. In addition, in [4], the “colonic blood flow at the mucosal level” value is reported as “failed to change” and the mesenteric blood flow entry is listed as “failed to change”. Besides, the “receptor blockade function compared with losartan” value in the data set with AT1a receptor [5] is on record as “nearly the same receptor blockade function as losartan”.

Take `CCOc1nc2cccc(C(=O)O)c2n1Cc1ccc(-c2ccccc2-c2nnn[nH]2)cc1` [candesartan]: in data set [1], the “systolic blood pressure change (Delta BP, post − pre treatment)” value is listed as “decline in systolic BP” and the heart rate change entry was “declined significantly”. In data set [1] (listed as Candesartan), the “systolic blood pressure change (Delta BP, post − pre treatment)” value is “resulted in a decline”. In [1] (listed as candasartan), the “systolic blood pressure change (Delta BP, post − pre treatment)” value is “significant decline in blood pressure”. In addition, in the data set with DSS colitis mice, the “weight loss after 7 days (body weight change, FIG. 10B)” value is recorded as −0.63±1.63%; the “weight loss after 1 week (percentage change from baseline body weight)” value is 0.63±1.63%; the “period before developing heme positive stools” value was 8.0 ± 0.0 days. Besides, in data set [4], the “colonic blood flow at the mucosal level” value is on record as 0.92±0.20 and the mesenteric blood flow came out at 1.56±0.33.

As usually defined, the inhibition is the drop in the measured response relative to a control, in per cent. The term pIC50 denotes −log10 of the IC50, conventionally taken in molar units. With `CCCCc1nc(Cl)c(CO)n1Cc1ccc(-c2ccccc2-c2nn[nH]n2)cc1` [losartan], in the data set with Ang I-infused dogs, the “time a ≧20 mmHg drop in mean arterial blood pressure (MABP) was maintained” value was 30 min. For the same compound, in data set [1], the “systolic blood pressure change (Delta BP, post − pre treatment)” value is listed as “significant decline in blood pressure” and the heart rate change result is reported as “not significantly different”. The “systolic blood pressure change (Delta BP, post − pre treatment)” value in data set [1] (listed as Losartan) is listed as “decline in systolic BP; also recorded: resulted in a decline”. For the same compound, in data set [3], the “mucosal RNA of IL-12p40, IFN-g, IL-17, AT1aR and ADAM17” value is “marked decline in several of these factors”. For the same compound, the inhibition at 60 µM on AT1a receptor [6] was 90%. Moreover, in the data set with DSS colitis mice, the “weight loss after 7 days (body weight change, FIG. 10B)” value was 0.07±2.50%; the “weight loss after 1 week (percentage change from baseline body weight)” value came to 0.07±2.50%; the “period before developing heme positive stools” value was 6.8 ± 2.7 days. In addition, in data set [4], the “colonic blood flow at the mucosal level” value came to 0.88±0.32 and the mesenteric blood flow is listed as 1.97±0.58. For the same compound, the pIC50 at AT1a receptor [7] was 7.30.
